Results taken from US4918054A, “Antibiotics called `chloropolysporins B and C`, a process for their preparation, and their therapeutic and veterinary use” (Sankyo Company Limited, priority 1985, dated 1990).
Converted amounts (≈) assume the structure as drawn.

What was measured:
[1] = test system: Staphylococcus epidermidis SANK 71575; test: MIC, two-fold agar dilution method, Mueller-Hinton agar; format: cell-based
[2] = test system: Clostridium ramosum; test: MIC against anaerobic bacteria, GAM agar medium; format: cell-based
[3] = test system: Propionibacterium acnes; test: MIC against anaerobic bacteria, GAM agar medium; format: cell-based
[4] = test system: Bacillus subtilis PCI 219; test: MIC, two-fold agar dilution method, Mueller-Hinton agar; format: cell-based
[5] = test system: Clostridium symbiosum; test: MIC against anaerobic bacteria, GAM agar medium; format: cell-based
[6] = test system: Proteus mirabilis SANK 70461; test: MIC, two-fold agar dilution method, Mueller-Hinton agar; format: cell-based
[7] = test system: Staphylococcus aureus Smith; test: as above; format: cell-based
[8] = test system: Pseudomonas aeruginosa NCTC 10490; test: as above; format: cell-based
[9] = test system: Staphylococcus aureus FDA 209P JC-1; test: as above; format: cell-based
[10] = test system: Bacteroides fragilis; test: MIC against anaerobic bacteria, GAM agar medium; format: cell-based
[11] = test system: Serratia marcescens SANK 73060; test: MIC, two-fold agar dilution method, Mueller-Hinton agar; format: cell-based
[12] = test system: Staphylococcus aureus SANK 70175; test: as above; format: cell-based
[13] = test system: Eubacterium cylindroides; test: MIC against anaerobic bacteria, GAM agar medium; format: cell-based
[14] = test system: Clostridium difficile; test: MIC against anaerobic bacteria, GAM agar medium; format: cell-based
Method: The minimal inhibitory concentrations (MIC) of chloropolysporins B and C against various gram-positive and gram-negative bacteria were determined by the two-fold agar dilution method, using a Mueller-Hinton agar medium (produced by Difco); the MIC against anaerobic bacteria was determined using a GAM agar medium (produced by Nissui).

[15] = test system: Mycobacterium smegmatis ATCC 607; test: MIC, two-fold agar dilution method, Mueller-Hinton agar; format: cell-based
[16] = Solubility in solvents; format: physicochemical
[17] = test system: Peptostreptococcus saccharoliticus; test: MIC against anaerobic bacteria, GAM agar medium; format: cell-based
[18] = test system: Klebsiella pneumoniae PCI 602; test: MIC, two-fold agar dilution method, Mueller-Hinton agar; format: cell-based
[19] = test system: Escherichia coli NIHJ JC-2; test: as above; format: cell-based
[20] = test system: Fusobacterium necrophorum; test: MIC against anaerobic bacteria, GAM agar medium; format: cell-based
[21] = test system: Clostridium perfringens; format: cell-based; details: anaerobic, GAM agar
[22] = test system: Enterococcus faecalis SANK 71778; test: MIC, two-fold agar dilution method, Mueller-Hinton agar; format: cell-based
[23] = test system: Peptostreptococcus parvulus; test: MIC against anaerobic bacteria, GAM agar medium; format: cell-based

Structure (SMILES) | MIC [1] | MIC [2] | MIC [3] | MIC [4] | MIC [5] | MIC [6] | MIC [7] | MIC [8] | MIC [9] | MIC [10] | MIC [11] | MIC [12] | MIC [13] | MIC [14] | MIC [15] | solubility in acetone ([16]; as its sulfate) | solubility in benzene ([16]; as its sulfate) | solubility in chloroform ([16]; as its sulfate) | solubility in ethyl acetate ([16]; as its sulfate) | solubility in methanol ([16]; as its sulfate) | other results
CNC(C(=O)NC1C(=O)NC(c2ccc(O)c(Cl)c2)C(=O)NC2C(=O)NC3C(=O)NC(C(=O)NC(C(=O)O)c4cc(O)cc(O)c4-c4cc3ccc4O)C(OC3CC(N)C(O)C(C)O3)c3ccc(c(Cl)c3)Oc3cc2cc(c3OC2OC(CO)C(O)C(O)C2O)Oc2ccc(cc2Cl)C1OC1OC(CO)C(O)C(O)C1O)c1ccc(OC2OC(C)C(O)C(O)C2O)cc1 (stereo not shown) [Chloropolysporin B, chloropolysporin B] | 3.13 µg/mL (≈ 1.69 µM) | 1.56 µg/mL (≈ 0.844 µM) | 0.78 µg/mL (≈ 0.422 µM) | 0.78 µg/mL (≈ 0.422 µM) | 1.56 µg/mL (≈ 0.844 µM) | > 100 µg/mL | 12.5 µg/mL (≈ 6.76 µM) | > 100 µg/mL | 1.56 µg/mL (≈ 0.844 µM) | > 100 µg/mL | > 100 µg/mL | 3.13 µg/mL (≈ 1.69 µM) | 6.25 µg/mL (≈ 3.38 µM) | 0.78 µg/mL (≈ 0.422 µM) | 25.0 µg/mL (≈ 13.5 µM) | sparingly soluble | insoluble | insoluble | insoluble | soluble | solubility in water ([16]; as its sulfate): soluble; solubility in water ([16]; free bases): insoluble in water; MIC [17]: 6.25 µg/mL (≈ 3.38 µM); MIC [18]: > 100 µg/mL; MIC [19]: > 100 µg/mL; MIC [20]: > 100 µg/mL; MIC [21]: 0.20 µg/mL (≈ 0.108 µM); MIC [22]: 1.56 µg/mL (≈ 0.844 µM); MIC [23]: 0.78 µg/mL (≈ 0.422 µM)
CNC(C(=O)NC1C(=O)NC(c2ccc(O)c(Cl)c2)C(=O)NC2C(=O)NC3C(=O)NC(C(=O)NC(C(=O)O)c4cc(O)cc(O)c4-c4cc3ccc4O)C(OC3CC(N)C(O)C(C)O3)c3ccc(c(Cl)c3)Oc3cc2cc(c3OC2OC(CO)C(O)C(O)C2O)Oc2ccc(cc2Cl)C1OC1OC(CO)C(O)C(O)C1O)c1ccc(O)cc1 (stereo not shown) [Chloropolysporin C, chloropolysporin C] | 3.13 µg/mL (≈ 1.84 µM) | 1.56 µg/mL (≈ 0.916 µM) | 0.39 µg/mL (≈ 0.229 µM) | 0.78 µg/mL (≈ 0.458 µM) | 0.39 µg/mL (≈ 0.229 µM) | > 100 µg/mL | 6.25 µg/mL (≈ 3.67 µM) | > 100 µg/mL | 1.56 µg/mL (≈ 0.916 µM) | > 100 µg/mL | > 100 µg/mL | 1.56 µg/mL (≈ 0.916 µM) | 3.13 µg/mL (≈ 1.84 µM) | 0.39 µg/mL (≈ 0.229 µM) | 12.5 µg/mL (≈ 7.34 µM) | sparingly soluble | insoluble | insoluble | insoluble | soluble | solubility in water ([16]; as its sulfate): soluble; solubility in water ([16]; free bases): insoluble in water; MIC [17]: 3.13 µg/mL (≈ 1.84 µM); MIC [18]: > 100 µg/mL; MIC [19]: > 100 µg/mL; MIC [20]: > 100 µg/mL; MIC [21]: 0.10 µg/mL (≈ 0.0587 µM); MIC [22]: 1.56 µg/mL (≈ 0.916 µM); MIC [23]: 0.39 µg/mL (≈ 0.229 µM)
